≈ marks a conversion by molar mass, not a printed value. Like-named read-outs stand apart in the source and are kept apart here.
Columns and labels:
[1] = tested on: L1210/L-PAM; assay: Cytotoxicity, 48-hr exposure of L-PAM resistant L1210/L-PAM leukemia cells; type: cell-based, murine; details: for fold increase in IC50, L1210/L-PAM compared to L1210/0: 48-h exposure; for IC50: Mus musculus, L1210/LPAM, read-out: IC50 L1210/L-PAM
Text: (§1) Murine L1210 leukemia cells sensitive (L1210/0) and resistant (L1210/L-PAM)to L-phenylalanine mustard were obtained that are adaptable to either in vitro or in vivo passage.
(§2) Broad resistance of the L1210/L-PAM cell line is shown by the approximately 4-fold and 9-fold increases in IC50, compared to L1210/0, for L-PAM and mechlorethamine, respectively (Comparative Examples 3 and 4). […].

[2] = tested on: L1210/0; assay: Cytotoxicity, 48-hr exposure of L1210/0 leukemia cells; type: cell-based, murine; details: Mus musculus, read-out: IC50 L1210/0
Text: as §1, §2

[3] = tested on: L1210/L-PAM; details: L1210/L-PAM line; cited from earlier work
[4] = tested on: L1210/0; details: cited from earlier work
[5] = tested on: HCT/VM46; assay: In vitro cytotoxicity, VM26 resistant HCT/VM46 human colon carcinoma; type: cell-based; details: for ratio of IC50 values HCT/VM46 vs HCT116: IC50 divided by IC50 for HCT116
Text: | HCT/VM46 human colon, VM26 resistant

[6] = tested on: HCT/VP35; assay: In vitro cytotoxicity, VP16 resistant HCT/VP35 human colon carcinoma; type: cell-based; details: for ratio of IC50 values HCT/VP35 vs HCT116: IC50 divided by IC50 for HCT116
Text: | HCT/VP35 human colon, VP16 resistant

[7] = tested on: HCT116; assay: In vitro cytotoxicity, HCT116 human colon carcinoma; type: cell-based; details: data provided by Bristol-Myers Laboratories
Text: ^b Cell lines: HCT116 human colon (sensitive to VP16 and VM26)

[8] = compared with chlorambucil; cited from earlier work
[9] = tested on: HT29 human colon carcinoma cells; assay: Growth inhibition cytotoxicity against HT29 human colon carcinoma cells (MER(+)); type: cell-based; details: HT-29
Text: (Example 15) These cells are very high in the alkyltransferase enzyme for repair of DNA guanine O6-alkyl products, and therefore are considered strongly MER(+) in phenotype. Levels of this enzyme in HT29 cells have averaged about 0.5 pmol/mg protein in recent studies (K. Chan, et al., unpublished). […] Thus, the lack of cross-resistance to ethyleneimines by the present invention of 2-chloroethyl aryl selenones is not associated with resistence mediated by the alkyltransferase repair enzyme.

In the case of `N[C@@H](Cc1ccc(N(CCCl)CCCl)cc1)C(=O)O` [L-Phenylalanine Mustard (L-PAM), L-Phenylalanine Mustard], the “fold increase in IC50, L1210/L-PAM compared to L1210/0” value [1] is reported as “approximately 4 fold”, the “Ratio of IC50s (L1210/L-PAM vs L1210/0)” value ([1]; 48-hr exposure) is reported as 4.4 and the IC50 ([1]; 48 h) is reported as 7 µM. For the same compound, the IC50 ([2]; L1210/0, 48 h) was 1.6 µM, the “in vivo resistance (log cell kill differential)” value [3] was 4 log and the “sensitivity of parent L1210/0 line” value [4] was “sensitive”.
For 3-methanesulfonylpropyl phenyl selenone, the “ratio of IC50 values HCT/VM46 vs HCT116” value [5] was 0.8, the “IC50 HCT/VM46” value ([5]; VM26 resistant, data provided by Bristol-Myers Laboratories) was 4.93 µg/mL and the “ratio of IC50 values HCT/VP35 vs HCT116” value [6] was 0.8. The “IC50 HCT/VP35” value ([6]; VP16 resistant, data provided by Bristol-Myers Laboratories) was 5.15 µg/mL and the “IC50 HCT116” value [7] was 6.34 µg/mL.
In the case of `CS(=O)(=O)CS(=O)(=O)OCCCl` [Clomesone], the nucleophilic selectivity [8] is given as “relatively high nucleophilic selectivity approaching that of chlorambucil”.
With `COc1cc([C@@H]2c3cc4c(cc3[C@@H](O[C@@H]3O[C@@H]5CO[C@@H](C)O[C@H]5[C@H](O)[C@H]3O)[C@H]3COC(=O)[C@H]23)OCO4)cc(OC)c1O` [VP-16 (Etoposide), Etoposide] the IC50 ([5]; Homo sapiens, VM26 resistant, data provided by Bristol-Myers Laboratories) was 1.48 µg/mL (≈ 2.51 µM), the “ratio of IC50 values HCT/VM46 vs HCT116” value [5] was 3.2 and the “fold increase in IC50, HCT/VM46” value ([5]; vs HCT116) was 3.2 fold. For the same compound, the IC50 ([6]; Homo sapiens, HCT/VP35, VP16 resistant, data provided by Bristol-Myers Laboratories) was 4.62 µg/mL (≈ 7.85 µM), the “ratio of IC50 values HCT/VP35 vs HCT116” value [6] was 10.0 and the “fold increase in IC50, HCT/VP35” value ([6]; vs HCT116) was 10.0 fold. It also gave an IC50 ([7]; Homo sapiens, HCT-116) of 0.46 µg/mL (≈ 0.782 µM).
For `CS(=O)(=O)OCCC[Se]CCCOS(C)(=O)=O` [(MsOCH2 CH2 CH2)2 Se], the “fold increase in IC50, L1210/L-PAM compared to L1210/0” value [1] was 7 fold, the “Ratio of IC50s (L1210/L-PAM vs L1210/0)” value ([1]; 48-hr exposure) was 7.0 and the IC50 ([1]; 48-hr exposure) was 16 µM. It also gave an IC50 ([2]; L1210/0, 48-hr exposure) of 2.3 µM.
In the case of `CS(=O)(=O)OCCC[Se]c1ccccc1` [PhSeCH2 CH2 CH2 OMs], the “Ratio of IC50s (L1210/L-PAM vs L1210/0)” value ([1]; 48-hr exposure) is reported as 1.9, the IC50 ([1]; 48-hr exposure) is reported as 100 µM and the IC50 ([2]; L1210/0, 48-hr exposure) is reported as 52 µM.
For `O=NN(CCCl)C(=O)NCCCl` [BCNU, carmustine], the “sensitivity of parent L1210/0 line” value [4] is given as “sensitive”.
`NC(=O)N(CCCl)N=O` [chloroethylnitrosourea (CNU), chloroethylnitrosourea, reference compound] showed an IC50 [9] of 250 µM.

From patent US5614562A, “Method of treating drug resistant tumor cells using organoselenones” (The University of Sourthern California, priority 1992, dated 1997)
